Results taken from patent US11958876B2, “Carbacyclic phosphatidic acid compound” (OTSUKA CHEMICAL CO., LTD., priority 2019, dated 2024).
Structures can show the parent of a compound that is named as a salt.

Test: Stability test of 2ccPA crystals with added 2ccPA-L or 2ccPA-P (thermo-hygrostat, HPLC purity)
Type: physicochemical
Conditions: 40° C., humidity 60%
Experimental: 2ccPA-L of Example 2 or 2ccPA-P of Comparative Example 2 was added to 2ccPA, and a stability test was performed. • Control: 2ccPA crystal • Test substances: crystals obtained by adding 2ccPA-L or 2ccPA-P at each concentration to 2ccPA, followed by crystallization with methanol and acetone. (2) Execution Conditions
In the stability test, a thermo-hygrostat (Yamato Scientific Co., Ltd., IW223) was used. The stability test was performed while maintaining a set temperature of 40° C. and a set humidity of 60%.
The sample purity was confirmed in such a manner that about 10 mg of each sample was weighed every week and diluted with 2 mL of acetonitrile/water (volume ratio: 1/1), and the diluted solution was analyzed by high-performance liquid chromatography (Shimadzu LC20AD).
The results are shown in Table 1 (Example 2) and Table 2 (Comparative Example 2). Tables 1 and 2 focus only on 2ccPA, and show the residual rate thereof with the initial content of 2ccPA as 100 mass %.

## CCCCC/C=C\C/C=C\CCCCCCCC(=O)OCC1COP(=O)(O)C1 (stereo not shown) [Example 2ccPA-L]
2ccPA-L coexisting with 2ccPA, storage 1 or 2 weeks
  Effect on purity of 2ccPA on storage (in words): hardly reduced

## CCCCCCCC/C=C\CCCCCCCC(=O)OCC1COP(=O)(O)C1 (stereo not shown) [Example 2ccPA, sodium salt of 9-octadecenoic acid (9Z)-(2-hydroxy-2-oxo-2λ^5-1,2-oxaphosphoran-4-yl)methyl ester]
Control 2ccPA crystal, 0 mass % additive, 1 week, initial 2ccPA content as 100 mass %
  Stability test (1 week): residual rate of 2ccPA: 100%
Control 2ccPA crystal, 0 mass % additive, 2 weeks, initial 2ccPA content as 100 mass %
  Stability test (2 weeks): residual rate of 2ccPA: 94.4%

## CCCCCCCCCCCCCCCC(=O)OCC1COP(=O)(O)C1 (stereo not shown) [Example 2ccPA-P]
0.15 mass % 2ccPA-P added to 2ccPA
  Effect on purity of 2ccPA on storage (in words): the purity was reduced
